pIC50: −log10 of the molar value. Where “and” joins values, the source holds several entries; their conditions need not be identical. Identical values can stand only once.
Experiments:
Adenosine receptor A2a = Adenosine receptor A2a (Homo sapiens, UniProt P29274); experiment: biochemical; format: cell-based, HEK293
Adenosine receptor A1 = molecular target: T1, Adenosine receptor A1 (Homo sapiens, UniProt P30542); experiment: biochemical; format: cell-based, CHO
T1 sequence (P30542 whole entry): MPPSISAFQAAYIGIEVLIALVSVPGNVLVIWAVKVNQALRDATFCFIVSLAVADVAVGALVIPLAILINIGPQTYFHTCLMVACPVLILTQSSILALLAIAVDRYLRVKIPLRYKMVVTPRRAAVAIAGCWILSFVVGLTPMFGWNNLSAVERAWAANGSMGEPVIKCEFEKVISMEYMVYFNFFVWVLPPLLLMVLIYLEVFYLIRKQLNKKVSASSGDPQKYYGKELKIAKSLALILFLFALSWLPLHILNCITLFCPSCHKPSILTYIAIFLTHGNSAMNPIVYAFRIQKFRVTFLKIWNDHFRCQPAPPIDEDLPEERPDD

Adenosine receptor A2b = molecular target: T2, Adenosine receptor A2b (Homo sapiens, UniProt P29275); experiment: biochemical; format: cell-based, HEK293
T2 sequence (P29275 whole entry): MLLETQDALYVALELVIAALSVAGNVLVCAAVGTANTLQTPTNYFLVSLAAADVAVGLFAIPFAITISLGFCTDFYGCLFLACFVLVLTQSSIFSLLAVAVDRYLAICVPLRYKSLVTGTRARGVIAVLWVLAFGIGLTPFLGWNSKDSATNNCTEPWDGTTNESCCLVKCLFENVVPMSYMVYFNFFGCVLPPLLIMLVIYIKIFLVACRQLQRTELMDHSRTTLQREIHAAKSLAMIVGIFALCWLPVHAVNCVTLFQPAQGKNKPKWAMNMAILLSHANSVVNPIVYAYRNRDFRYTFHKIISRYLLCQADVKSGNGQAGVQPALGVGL

Monkey = format: functional, Cercopithecidae, Eye

Sequence of Adenosine receptor A2a (P29274 whole entry): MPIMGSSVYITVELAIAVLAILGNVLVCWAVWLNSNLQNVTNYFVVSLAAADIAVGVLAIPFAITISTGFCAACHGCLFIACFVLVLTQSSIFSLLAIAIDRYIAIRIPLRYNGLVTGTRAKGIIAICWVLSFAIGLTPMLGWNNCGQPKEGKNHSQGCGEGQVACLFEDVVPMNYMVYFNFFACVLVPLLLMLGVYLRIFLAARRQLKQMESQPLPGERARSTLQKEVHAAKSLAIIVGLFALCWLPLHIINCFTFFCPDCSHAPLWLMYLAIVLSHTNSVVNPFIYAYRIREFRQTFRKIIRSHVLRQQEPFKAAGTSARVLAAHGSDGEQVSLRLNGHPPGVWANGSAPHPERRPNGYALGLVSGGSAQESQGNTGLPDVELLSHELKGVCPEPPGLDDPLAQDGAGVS

pIC50 (Adenosine receptor A2a) | pIC50 (Adenosine receptor A1) | pIC50 (Adenosine receptor A2b) | Compound | Effect (Monkey)
< 5.00 | < 5.00 | < 5.00 | CCCCc1nc2nc[nH]c2c2nc(-c3ccc(-c4ccccc4)cc3)nn12 | –
– | < 5.00 | < 5.00 | CCCCc1nc2[nH]cnc2c2nc(-c3ccc(C(F)(F)F)cc3)nn12 | 19.6 mmHg and 19.1 mmHg
6.12 | – | – | CCCCc1nc2n[nH]cc2c2nc(-c3cccc(Cl)c3)nn12 | –
< 5.00 | < 5.00 | < 5.00 | COCCc1nc2nc[nH]c2c2nc(-c3ccc(-c4ccccc4)cc3)nn12 | –
< 5.00 | – | – | O=C(O)CCc1nc2nc[nH]c2c2nc(-c3ccc(-c4ccccc4)cc3)nn12 | –
< 5.00 | < 5.00 | < 5.00 | O=C(O)CCCc1nc2nc[nH]c2c2nc(-c3ccc(Cl)cc3)nn12 | –
< 5.00 | – | – | CCCCc1nc2cccc(Cl)c2c2nc(-c3ccccc3)nn12 | –
6.89 | – | – | CCCCc1nc2n[nH]cc2c2nc(-c3ccccc3Cl)nn12 | –
